From US12122778B2, “Activating pyruvate kinase R” (Novo Nordisk Health Care AG, priority 2018, dated 2024)

Columns and labels:
PKR(R510Q) = PKR(R510Q) (Homo sapiens, UniProt P30613, R510Q); test: Luminescence Biochemical Assay (Kinase Glo Plus), PKR R510Q mutant; conditions: without FBP; for activation at 1.54 µM: 1.54 μM compound, read-out: AC50 LUM KGP woFBP % Fold@1.54 μM mean; for AC50: read-out: AC50 LUM KGP woFBP AC50 μM gmean; for Emax: read-out: AC50 LUM KGP woFBP MAX % FOLD mean
PKR(G332S) = PKR(G332S) (Homo sapiens, UniProt P30613, G332S); test: Luminescence Biochemical Assay (Kinase Glo Plus), PKR G332S mutant; conditions: with FBP; for activation at 1.54 µM: 1.54 μM compound, read-out: AC50 LUM KGP FBP % Fold@1.54 μM mean; for AC50: read-out: AC50 LUM KGP FBP AC50 μM gmean (column A); for Emax: read-out: AC50 LUM KGP FBP MAX % FOLD mean
PKR(wt) = PKR(wt) (Homo sapiens, UniProt P30613); test: Luminescence Biochemical Assay (Kinase Glo Plus), wild type PKR; conditions: without FBP; for activation at 1.54 µM: 1.54 μM compound, read-out: AC50 LUM KGP woFBP % Fold@1.54 μM mean; for AC50: read-out: AC50 LUM KGP woFBP AC50 μM gmean; for Emax: read-out: AC50 LUM KGP woFBP MAX % FOLD mean
Sequence of PKR(wt) (P30613 whole entry): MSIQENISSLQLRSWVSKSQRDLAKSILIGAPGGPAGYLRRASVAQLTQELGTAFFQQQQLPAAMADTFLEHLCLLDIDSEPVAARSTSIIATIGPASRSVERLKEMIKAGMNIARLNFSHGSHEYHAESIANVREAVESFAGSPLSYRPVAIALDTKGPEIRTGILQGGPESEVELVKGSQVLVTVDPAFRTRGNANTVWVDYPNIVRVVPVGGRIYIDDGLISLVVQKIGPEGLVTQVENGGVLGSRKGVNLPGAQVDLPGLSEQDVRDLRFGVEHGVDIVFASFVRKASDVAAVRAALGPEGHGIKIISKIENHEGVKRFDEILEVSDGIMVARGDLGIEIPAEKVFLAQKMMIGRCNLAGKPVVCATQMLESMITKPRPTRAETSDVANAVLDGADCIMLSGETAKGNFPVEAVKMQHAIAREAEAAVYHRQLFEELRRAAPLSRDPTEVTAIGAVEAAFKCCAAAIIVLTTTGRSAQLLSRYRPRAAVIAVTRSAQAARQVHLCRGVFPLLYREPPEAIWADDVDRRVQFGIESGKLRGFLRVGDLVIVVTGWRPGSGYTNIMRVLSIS

Sequence of PKR(R510Q) (P30613 whole entry R510Q): as the sequence (P30613 whole entry) above, with R510Q counted along it
Sequence of PKR(G332S) (P30613 whole entry G332S): as the sequence (P30613 whole entry) above, with G332S counted along it

| Compound | activation at 1.54 µM (PKR(R510Q)) [%] | AC50 (PKR(R510Q)) [µM] | Emax (PKR(R510Q)) [%] | activation at 1.54 µM (PKR(G332S)) [%] | AC50 (PKR(G332S)) [µM] | Emax (PKR(G332S)) [%] | activation at 1.54 µM (PKR(wt)) [%] | AC50 (PKR(wt)) [µM] | Emax (PKR(wt)) [%] |
| --- | --- | --- | --- | --- | --- | --- | --- | --- | --- |
| O=C([C@H](O)c1ccccc1)N1CC2=C(C1)CN(S(=O)(=O)c1cccc(C(F)(F)F)n1)C2 [Example 9-3, (2R)-2-hydroxy-2-phenyl-1-[5-[6-(trifluoromethyl)pyridine-2-sulfonyl]-1H,2H,3H,4H,5H,6H-pyrrolo[3,4-c]pyrrol-2-yl]ethan-1-one] | 75 to 250 | 1 to 40 | 250 to 500 | 75 to 250 | 1 to 40 | 75 to 250 | 75 to 250 | 0.1 to 1 | 75 to 250 |
| O=C([C@H](O)c1ccccc1)N1CC2=C(C1)CN(S(=O)(=O)c1ccc(F)c(F)c1)C2 [Example 18-53, (2R)-1-[5-(3,4-difluorobenzenesulfonyl)-1H,2H,3H,4H,5H,6H-pyrrolo[3,4-c]pyrrol-2-yl]-2-hydroxy-2-phenylethan-1-one] | 75 to 250 | 0.1 to 1 | 75 to 250 | 75 to 250 | 1 to 40 | 75 to 250 | 75 to 250 | 0.1 to 1 | 75 to 250 |
| O=C(C(O)c1ccc(C(F)(F)F)cc1)N1CC2=C(C1)CN(S(=O)(=O)c1ccc(OC(F)F)cc1)C2 (stereo not drawn) [Example 18-32, 1-{5-[4-(Difluoromethoxy)benzenesulfonyl]-1H,2H,3H,4H,5H,6H-pyrrolo[3,4-c]pyrrol-2-yl}-2-hydroxy-2-[4-(trifluoromethyl)phenyl]ethan-1-one] | 75 to 250 | 0.1 to 1 | 250 to 500 | 75 to 250 | 0.1 to 1 | 75 to 250 | 75 to 250 | 0.1 to 1 | 250 to 500 |
| O=C(Cn1cccn1)N1CC2=C(C1)CN(S(=O)(=O)c1ccc(OC(F)F)cc1)C2 [Example 18-21, 1-{5-[4-(Difluoromethoxy)benzenesulfonyl]-1H,2H,3H,4H,5H,6H-pyrrolo[3,4-c]pyrrol-2-yl}-2-(1H-pyrazol-1-yl)ethan-1-one] | 75 to 250 | 1 to 40 | 250 to 500 | 75 to 250 | 0.1 to 1 | 75 to 250 | 75 to 250 | 1 to 40 | 250 to 500 |
| COc1cc(Cl)ccc1S(=O)(=O)N1CC2=C(CN(C(=O)[C@H](O)c3ccccc3)C2)C1 [Example 18-58, (2R)-1-[5-(4-chloro-2-methoxybenzenesulfonyl)-1H,2H,3H,4H,5H,6H-pyrrolo[3,4-c]pyrrol-2-yl]-2-hydroxy-2-phenylethan-1-one] | 75 to 250 | 1 to 40 | 75 to 250 | 75 to 250 | 1 to 40 | 75 to 250 | 75 to 250 | 1 to 40 | 75 to 250 |

Other lines, results leading:

| activation at 1.54 µM (PKR(R510Q)) [%] | AC50 (PKR(R510Q)) [µM] | Emax (PKR(R510Q)) [%] | activation at 1.54 µM (PKR(G332S)) [%] | AC50 (PKR(G332S)) [µM] | Emax (PKR(G332S)) [%] | activation at 1.54 µM (PKR(wt)) [%] | AC50 (PKR(wt)) [µM] | Emax (PKR(wt)) [%] | Compound |
| --- | --- | --- | --- | --- | --- | --- | --- | --- | --- |
| 75 to 250 | 0.1 to 1 | 250 to 500 | 75 to 250 | 0.1 to 1 | 75 to 250 | 75 to 250 | 0.1 to 1 | 250 to 500 | O=C(NCc1ccc(F)cc1)N1CC2=C(C1)CN(S(=O)(=O)c1ccc3ncsc3c1)C2 [Example 21-19, 5-(1,3-Benzothiazole-6-sulfonyl)-N-[(4-fluorophenyl)methyl]-1H,2H,3H,4H,5H,6H-pyrrolo[3,4-c]pyrrole-2-carboxamide] |
| 75 to 250 | 1 to 40 | 75 to 250 | 75 to 250 | 1 to 40 | 75 to 250 | 75 to 250 | 1 to 40 | 75 to 250 | O=C(OCC1CCOC1)N1CC2=C(C1)CN(S(=O)(=O)c1ccc(OC(F)F)cc1)C2 (stereo not drawn) [Example 22-3, Oxolan-3-ylmethyl 5-[4-(difluoromethoxy)benzenesulfonyl]-1H,2H,3H,4H,5H,6H-pyrrolo[3,4-c]pyrrole-2-carboxylate] |
| 75 to 250 | 1 to 40 | 250 to 500 | 75 to 250 | 0.1 to 1 | 75 to 250 | 75 to 250 | 1 to 40 | 250 to 500 | Cc1cc(CNC(=O)N2CC3=C(C2)CN(S(=O)(=O)c2ccccn2)C3)no1 [Example 21-43, N-[(5-methyl-1,2-oxazol-3-yl)methyl]-5-(pyridine-2-sulfonyl)-1H,2H,3H,4H,5H,6H-pyrrolo[3,4-c]pyrrole-2-carboxamide] |
